Patent US20190263818A1 (LifeSci Pharmaceuticals, Inc., priority 2015, published 2019)

Biological target: T1, human plasma kallikrein (Homo sapiens, UniProt P03952)
T1 construct: purchased Abcam
Assay: In vitro enzyme inhibition of human plasma kallikrein (Pro-Phe-Arg-AMC cleavage)
Type: biochemical
Settings: human Plasma Kallikrein (Abcam), substrate Pro-Phe-Arg-AMC, 37° C., Tris-HCl pH 7.5; read-out: hPK IC50
Protocol: The ability of the compounds disclosed herein to inhibit human plasma kallikrein activity was quantified according to the procedures below.
A 10 mM solution of the test compound was made in DMSO. This solution was serially diluted 1:5 in DMSO to yield 2000, 400, 80, 16, 3.2, 0.64, 0.128, 0.0256 and […] compound test solutions. A control tube containing only DMSO is included. 16 μL of each compound test solution was combined with 384 μL of assay buffer (50 mM Tris-HCl pH 7.5, 150 mM NaCl, 0.01% Triton X-100) to yield a “4× test compound buffer stock”. Separately, a 40 nM solution of human Plasma Kallikrein (Abcam) and a 93.6 μM solution Pro-Phe-Arg-AMC (Bachem) were made using assay buffer. These solutions are hereby referred to as 4× hPK and 2×PFR-AMC, respectively.
60 μL of each 4× test compound buffer stock was combined with 60 μL of 4× hPK to yield 120 μL of “2× test compound buffer stock/2× hPK”. 50 μL was removed from this mixture and placed into duplicate wells on a Microfluor 1Black U-bottom microtiter plate (Thermo Scientific). This plate was incubated for 5 minutes at 37° C. To each well, 50 μL of pre-warmed 2×PFR-AMC was added to start the enzymatic reaction. Cleavage of PFR-AMC was monitored in a Biotek Synergy H4 reader set at 37° C. Readings are taken every 43 seconds for 1 hour. The highest mean velocity over 20 reads (˜15 minutes) is used to calculate the IC50. The IC50 is calculated using the Gen5 (Biotek Instruments).
The ability of the compounds in Table 4 to inhibit human plasma kallikrein activity was determined.

T1 sequence (P03952 391-638 limits assumed): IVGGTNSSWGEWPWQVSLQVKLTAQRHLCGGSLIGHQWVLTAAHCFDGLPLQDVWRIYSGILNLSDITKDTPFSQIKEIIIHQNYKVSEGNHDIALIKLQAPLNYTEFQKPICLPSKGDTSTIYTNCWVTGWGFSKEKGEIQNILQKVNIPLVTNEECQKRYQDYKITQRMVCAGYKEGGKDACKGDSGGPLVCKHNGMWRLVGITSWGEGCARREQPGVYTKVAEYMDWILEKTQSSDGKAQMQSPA
T1 sequence (P03952 20-390 partner limits assumed): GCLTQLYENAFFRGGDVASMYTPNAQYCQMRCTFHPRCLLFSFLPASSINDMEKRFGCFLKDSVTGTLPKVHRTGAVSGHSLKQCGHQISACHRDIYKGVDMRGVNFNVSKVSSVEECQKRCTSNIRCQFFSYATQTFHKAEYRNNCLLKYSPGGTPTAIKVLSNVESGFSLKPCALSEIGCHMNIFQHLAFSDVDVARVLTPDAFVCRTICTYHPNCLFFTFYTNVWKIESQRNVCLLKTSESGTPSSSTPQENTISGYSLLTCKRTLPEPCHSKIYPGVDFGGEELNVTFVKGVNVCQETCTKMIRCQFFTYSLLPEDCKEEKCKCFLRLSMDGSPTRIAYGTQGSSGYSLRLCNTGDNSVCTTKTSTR

| SMILES | IC50 [nM] |
| --- | --- |
| Clc1cnc2ccc(Cc3cc4c(NCc5cnc6[nH]cc(Cl)c6c5)n[nH]c4cn3)cc2c1 [Example 20, N-((3-chloro-1H-pyrrolo[2,3-b]pyridin-5-yl)methyl)-5-((3-chloroquinolin-6-yl)methyl)-1H-pyrazolo[3,4-c]pyridin-3-amine] | 100 to 1000 |
| O=C(NCc1cc2c(Cl)c[nH]c2cc1F)c1ccc2c(c1)C(c1ccc3ncc(Cl)cc3c1)OC2 (stereo not shown) [Example 21, N-((3-chloro-6-fluoro-1H-indol-5-yl)methyl)-3-(3-chloroquinolin-6-yl)-1,3-dihydroisobenzofuran-5-carboxamide] | 100 to 1000 |
| Cc1cc(N)nc(C)c1CNc1ncnc2nc(Cc3ccc4ncc(C(F)(F)F)cc4c3)[nH]c12 [Example 10, N-((6-amino-2,4-dimethylpyridin-3-yl)methyl)-8-((3-(trifluoromethyl)quinolin-6-yl)methyl)-7H-purin-6-amine] | ≤ 100 |
| Clc1cnc2ccc(Cc3ccc4onc(NCc5cnc6[nH]cc(Cl)c6c5)c4c3)cc2c1 [Example 1, N-((3-chloro-1H-pyrrolo[2,3-b]pyridin-5-yl)methyl)-5-((3-chloroquinolin-6-yl)methyl)benzo[d]isoxazol-3-amine] | 100 to 1000 |
| Clc1c[nH]c2ncc(CNc3ncnc4nc(Cc5ccc6ncccc6c5)[nH]c34)cc12 [Example 17, N-((3-chloro-1H-pyrrolo[2,3-b]pyridin-5-yl)methyl)-8-(quinolin-6-ylmethyl)-7H-purin-6-amine] | 100 to 1000 |
| Fc1c(CNc2ncnc3nc(Cc4ccc5ncc(Cl)cc5c4)[nH]c23)ccc2[nH]cc(Cl)c12 [Example 7, N-((3-chloro-4-fluoro-1H-indol-5-yl)methyl)-8-((3-chloroquinolin-6-yl)methyl)-7H-purin-6-amine] | ≤ 100 |
| FC(F)(F)c1cnc2ccc(Cc3nc4ncnc(NCc5cnc6[nH]cc(Cl)c6c5)c4[nH]3)cc2c1 [Example 15, N-((3-chloro-1H-pyrrolo[2,3-b]pyridin-5-yl)methyl)-8-((3-(trifluoromethyl)quinolin-6-yl)methyl)-7H-purin-6-amine] | 100 to 1000 |
| Cc1cc(N)nc(C)c1CNc1nccc2nc(Cc3ccc4ncc(Cl)cc4c3)[nH]c12 [Example 4, N-((6-amino-2,4-dimethylpyridin-3-yl)methyl)-2-((3-chloroquinolin-6-yl)methyl)-3H-imidazo[4,5-c]pyridin-4-amine] | 1000 to 10000 |
| Cn1nc(NCc2cnc3[nH]cc(Cl)c3c2)c2cc(Cc3ccc4ncc(Cl)cc4c3)ccc21 [Example 2, N-((3-chloro-1H-pyrrolo[2,3-b]pyridin-5-yl)methyl)-5-((3-chloroquinolin-6-yl)methyl)-1-methyl-1H-indazol-3-amine] | 100 to 1000 |
| Fc1c(CNc2ncnc3nc(Cc4ccc5ncc(C(F)(F)F)cc5c4)[nH]c23)ccc2[nH]cc(Cl)c12 [Example 13, N-((3-chloro-4-fluoro-1H-indol-5-yl)methyl)-8-((3-(trifluoromethyl)quinolin-6-yl)methyl)-7H-purin-6-amine] | ≤ 100 |
| Clc1cnc2ccc(Cc3ccc4[nH]nc(NCc5cnc6[nH]cc(Cl)c6c5)c4c3)cc2c1 [Example 3, N-((3-chloro-1H-pyrrolo[2,3-b]pyridin-5-yl)methyl)-5-((3-chloroquinolin-6-yl)methyl)-1H-indazol-3-amine] | 100 to 1000 |

Continued, values first:

| IC50 [nM] | SMILES |
| --- | --- |
| ≤ 100 | Fc1cc2[nH]cc(Cl)c2cc1CNc1ncnc2nc(Cc3ccc4ncc(Cl)cc4c3)[nH]c12 [Example 5] |
| ≤ 100 | Cc1cc(N)nc(C)c1CNc1ncnc2nc(Cc3ccc4ncc(Cl)cc4c3)[nH]c12 [Example 19, N-((6-amino-2,4-dimethylpyridin-3-yl)methyl)-8-((3-chloroquinolin-6-yl)methyl)-7H-purin-6-amine] |
| ≤ 100 | Clc1cnc2ccc(Cc3nc4ncnc(NCc5cnc6[nH]cc(Cl)c6c5)c4[nH]3)cc2c1 [Example 8, N-((3-chloro-1H-pyrrolo[2,3-b]pyridin-5-yl)methyl)-8-((3-chloroquinolin-6-yl)methyl)-7H-purin-6-amine] |
| ≤ 100 | Nc1nccc2cc(CNc3ncnc4nc(Cc5ccc6ncc(C(F)(F)F)cc6c5)[nH]c34)ccc12 [Example 14, 6-(((8-((3-(trifluoromethyl)quinolin-6-yl)methyl)-7H-purin-6-yl)amino)methyl)isoquinolin-1-amine] |
| ≤ 100 | FC(F)(F)c1cnc2ccc(Cc3nc4ncnc(NCc5n[nH]c6ccc(Cl)cc56)c4[nH]3)cc2c1 [Example 12, N-((5-chloro-1H-indazol-3-yl)methyl)-8-((3-(trifluoromethyl)quinolin-6-yl)methyl)-7H-purin-6-amine] |
| ≤ 100 | Clc1cnc2ccc(Cc3nc4ncnc(NCc5n[nH]c6ccc(Cl)cc56)c4[nH]3)cc2c1 [Example 6, N-((5-chloro-1H-indazol-3-yl)methyl)-8-((3-chloroquinolin-6-yl)methyl)-7H-purin-6-amine] |
| ≤ 100 | Fc1cc2[nH]cc(Cl)c2cc1CNc1ncnc2nc(Cc3ccc4ncc(C(F)(F)F)cc4c3)[nH]c12 [Example 11, N-((3-chloro-6-fluoro-1H-indol-5-yl)methyl)-8-((3-(trifluoromethyl)quinolin-6-yl)methyl)-7H-purin-6-amine] |
| ≤ 100 | Cc1cc(N)nc(C)c1CNc1ncnc2cn(Cc3ccc4ncc(Cl)cc4c3)nc12 [Example 9, N-((6-amino-2,4-dimethylpyridin-3-yl)methyl)-2-((3-chloroquinolin-6-yl)methyl)-2H-pyrazolo[4,3-d]pyrimidin-7-amine] |
